Source: patent publication EP1369117A1, “Use of derivatives and precursors of oxaziridine in the treatment of cancerous tumours” (priority 2002, dated 2003)
Converted amounts (≈) assume the structure as drawn. Read-outs that look alike come from different tables or passages of the source.

Legend:
Format in all cases: cell-based
[1] = system: B16 (Lignée de mélanome murin); test: MTT test, anti-tumour activity on B16 cell line; details: for IC50: Mus musculus, B16, light or radiation study
Procedure: (§1) Différents composés de l'invention ont été testés pour leurs activités anti-tumorales sur différentes lignées tumorales murines ou humaines et comparés à des produits anti-tumoraux connus.
(§2) Les lignées cellulaires testées sont la lignée lymphoblastoïde murine P388, la lignée de mélanome murin B16, la lignée de kératinocytes humains HaCaT, la lignée de mélanome humain HBL.
(§3) L'action anti-tumorale des composés de l'invention a été testée sur ces différentes lignées après différentes durées d'incubation (30 minutes, 2 heures, 3 heures, 48 heures ou 72 heures).
(§4) En outre, différents types d'irradiation, différentes durées d'irradiation (30 minutes ou 60 minutes) ainsi que différentes durées d'incubation ont été testés.
(§5) Les différents résultats sont présentés dans le tableau 1 annexé.

[2] = system: P388 (Lignée lymphoblastoïde murine); test: MTT test, anti-tumour activity on P388 cell line; details: for IC50: Mus musculus
Procedure: as §1, §2, §3, §4, §5

[3] = system: HaCaT (Lignée de kératinocytes humains); test: MTT test, anti-tumour activity on HaCaT cell line; details: Homo sapiens, rest 24 h, incubation 3 h, 4°C, incubation before MTT test 45 h, read-out: Dose efficace DL50
Procedure: as §1, §2, §3, §4, §5

[4] = system: HBL (Lignée de mélanome humain); test: MTT test, anti-tumour activity on HBL cell line; details: Homo sapiens, rest 24 h, incubation 3 h, 4°C, incubation before MTT test 45 h, read-out: Dose efficace DL50
Procedure: as §1, §2, §3, §4, §5

[5] = B16, rest after culture 24 h, incubation 2 h, no irradiation, incubation before MTT test 72 h
[6] = B16, rest after culture 24 h, incubation 72 h, no irradiation, incubation before MTT test 0 h
[7] = P388, rest after culture 24 h, incubation 2 h, no irradiation, incubation before MTT test 48 h
[8] = P388, rest after culture 24 h, incubation 48 h, no irradiation, incubation before MTT test 0 h
[9] = read-out: Dose efficace DL50, B16, rest after culture 24 h, incubation 2 h, no irradiation, incubation before MTT test 72 h
[10] = read-out: Dose efficace DL50, B16, rest after culture 24 h, incubation 72 h, no irradiation, incubation before MTT test 0 h
[11] = P388, light or radiation study, read-out: Dose efficace DL50, P388, rest after culture 24 h, incubation 2 h, no irradiation, incubation before MTT test 48 h
[12] = P388, light or radiation study, read-out: Dose efficace DL50, P388, rest after culture 24 h, incubation 48 h, no irradiation, incubation before MTT test 0 h
[13] = light or radiation study, UVA Cléo + filtre UVB + polyéthylène, irradiation 60 min
[14] = B16, rest after culture 24 h, incubation 2 h, no irradiation, incubation before MTT test 72 h, read-out: Dose efficace DL50
[15] = B16, rest after culture 24 h, incubation 72 h, no irradiation, incubation before MTT test 0 h, read-out: Dose efficace DL50
[16] = light or radiation study, P388, rest after culture 24 h, incubation 2 h, no irradiation, incubation before MTT test 48 h, read-out: Dose efficace DL50

Molecule: oxaziridine de deschlorodiazépoxide [oxaziridine du deschlordiazépoxide]
- Dose efficace DL50 [1, 5]: 14 µg/ml μg/ml
- Dose efficace DL50 [1, 6]: 8 µg/ml μg/ml
- Dose efficace DL50 [2, 7]: 22 µg/mL
- Dose efficace DL50 [2, 8]: 12 µg/mL

Molecule: N[C@@H](Cc1ccc(N(CCCl)CCCl)cc1)C(=O)O [Melphalan, reference compound]
- Dose efficace DL50 [1]: 10 µg/mL
- IC50 ([1]; read-out: Dose efficace DL50): 12 µg/mL (≈ 39.3 µM)
- Dose efficace DL50 [2]: 7 µg/mL
- IC50 ([2]; P388, light or radiation study, read-out: Dose efficace DL50): 9 µg/mL (≈ 29.5 µM)

Molecule: O=C1CN2OC2(c2ccccc2)c2cc(Cl)ccc2N1 (centres unmarked) [oxaziridine du démoxépan, oxaziridine de demoxepan]
- IC50 [1, 9]: 22 µg/mL (≈ 76.7 µM)
- IC50 [1, 10]: 11 µg/mL (≈ 38.4 µM)
- IC50 [2, 11]: 62 µg/mL (≈ 216 µM)
- IC50 [2, 12]: 22 µg/mL (≈ 76.7 µM)

Molecule: CNC1=Nc2ccc(Cl)cc2C2(c3ccccc3)ON2C1 (centres unmarked) [oxaziridine du chlordiazépoxide, oxaziridine de chlorodiazépoxide]
- IC50 [1, 9]: 32 µg/mL (≈ 107 µM)
- IC50 [1, 10]: 15 µg/mL (≈ 50 µM)
- IC50 [2, 11]: 41 µg/mL (≈ 137 µM)
- IC50 [2, 12]: 34 µg/mL (≈ 113 µM)

Molecule: CNC1=Nc2ccccc2C(c2ccccc2)=[N+]([O-])C1 [deschlordiazépoxide, deschlorodiazépoxide]
- Dose efficace DL50 [1, 5]: > 100 µg/mL
- Dose efficace DL50 [1, 6]: > 100 µg/mL
- Dose efficace DL50 [2, 7]: > 100 µg/mL
- Dose efficace DL50 [2, 8]: > 100 µg/mL

Molecule: CNC1=Nc2ccc(Cl)cc2C(c2ccccc2)=[N+]([O-])C1 [chlordiazépoxide, chlorodiazépoxide, reference compound]
- IC50 ([3]; light or radiation study, UVA Cléo + filtre UVB + polyéthylène, irradiation 30 min): 36 µg/mL
- IC50 [3, 13]: 24 µg/mL
- IC50 ([3]; no light source (---), 30 min): > 100 µg/mL
- IC50 ([1]; B16, rest 24 h, incubation 30 min, lampe de Wood, RT, irradiation 30 min, no time before washing (---), incubation before MTT test 72 h, read-out: Dose efficace DL50): 7 µg/mL (≈ 23.4 µM)
- IC50 ([1]; B16, rest 24 h, incubation 30 min, lampe de Wood, RT, irradiation 30 min, time before washing 1 h, incubation before MTT test 72 h, read-out: Dose efficace DL50): 9 µg/mL (≈ 30 µM)
- IC50 [1, 14]: > 100 µg/mL
- IC50 [1, 15]: > 100 µg/mL
- IC50 [4, 13]: 12 µg/mL
- IC50 ([4]; no light source (---), 30 min): > 100 µg/mL
- IC50 [2, 16]: > 100 µg/mL
- Dose efficace DL50 [2, 8]: > 100 µg/mL

Molecule: O=C1C[N+]([O-])=C(c2ccccc2)c2cc(Cl)ccc2N1 [démoxépan, demoxepan]
- IC50 [1, 14]: > 100 µg/mL
- IC50 [1, 15]: > 100 µg/mL
- IC50 [2, 16]: > 100 µg/mL
- Dose efficace DL50 [2, 8]: > 100 µg/mL
